From article PMC4216216 (Journal of Medicinal Chemistry, 2014)

Experiments:
KDM4B [1] = molecular target: T1, KDM4B (Homo sapiens, UniProt O94953); details: 10 μM enzyme, 100 μM inhibitor, 5 μM H3, 37 °C, 30 min
T1 sequence (O94953 1-348): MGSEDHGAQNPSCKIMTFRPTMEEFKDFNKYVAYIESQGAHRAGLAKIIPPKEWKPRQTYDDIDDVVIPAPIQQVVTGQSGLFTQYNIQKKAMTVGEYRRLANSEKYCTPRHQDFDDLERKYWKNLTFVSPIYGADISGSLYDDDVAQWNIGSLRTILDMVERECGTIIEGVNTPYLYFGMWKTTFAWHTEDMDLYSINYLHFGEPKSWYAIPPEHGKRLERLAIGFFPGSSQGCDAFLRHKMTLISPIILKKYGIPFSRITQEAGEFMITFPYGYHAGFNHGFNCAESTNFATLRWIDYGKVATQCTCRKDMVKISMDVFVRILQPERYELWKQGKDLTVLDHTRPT

KDM4B [2] = molecular target: T1, KDM4B
KDM4A [3] = molecular target: T2, KDM4A (Homo sapiens, UniProt O75164)
T2 sequence (O75164 1-347): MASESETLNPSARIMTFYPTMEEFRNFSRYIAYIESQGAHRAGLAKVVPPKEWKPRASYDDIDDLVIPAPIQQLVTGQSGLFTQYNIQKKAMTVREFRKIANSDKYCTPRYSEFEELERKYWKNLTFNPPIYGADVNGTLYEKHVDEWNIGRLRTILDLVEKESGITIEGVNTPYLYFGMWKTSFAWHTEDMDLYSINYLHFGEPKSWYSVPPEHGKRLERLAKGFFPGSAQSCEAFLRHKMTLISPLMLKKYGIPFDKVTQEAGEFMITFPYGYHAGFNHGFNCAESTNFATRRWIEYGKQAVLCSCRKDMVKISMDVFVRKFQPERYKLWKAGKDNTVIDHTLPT

KDM4A [4] = molecular target: T2, KDM4A; assay: Demethylation of calf thymus H3 by KDM4A, western blot; details: 10 μM enzyme, 100 μM inhibitor, 5 μM H3, 37 °C, 30 min
cultured cells = details: as a prodrug; cited from earlier work
PNT2 cells = assay: PNT2 normal prostate cell growth; details: 5–20 μM, over 6 days
LNCaP cells [5] = assay: Microarray gene expression in LNCaP cells; format: cell-based; details: 50 μM, 3 days
RWPE1 = RWPE1 normal prostate cell growth; details: 20 μM treatment
LNCaP cells [6] = details: 5–20 μM, over 6 days
H3K9me3 in LNCaP cells = assay: Histone H3 methylation level in LNCaP cells, western blot; format: cell-based
HeLa cells = details: read-out: cytotoxic IC50 in HeLa cells; cited from earlier work

SMILES | demethylation of histone H3K9me3 and H3K36me3 by KDM4B (KDM4B [1]) | activity (KDM4B [2]) | activity (KDM4A [3]) | demethylation of histone H3K9me3 and H3K36me3 by KDM4A (KDM4A [4]) | cytotoxic IC50 in cultured cells (cultured cells) | effect on PNT2 cells (PNT2 cells) | inhibitory mode against H3_3–17K9me3, KDM4A (KDM4A [3]) | expression of oncogenes IGF1R, FGFR3, CCNE2, AURKA and AURKB (LNCaP cells [5]) | expression of tumor suppressors RB1 and CDH1 (LNCaP cells [5]) | growth of RWPE1 cells (RWPE1) | growth of LNCaP cells (LNCaP cells [6]) | demethylating activity toward H3K9me3 in LNCaP cells (H3K9me3 in LNCaP cells; 5 μM, 24 h) | level of H3K9me3 in LNCaP cells (H3K9me3 in LNCaP cells; 10 µM, 3 days) | signals of H3K4me2, H3K27me3, H3K27me2, H3K36me3, H3K36me2 and H3K79me2 in LNCaP cells (H3K9me3 in LNCaP cells; 10 µM, 3 days, control vs treated) | cellular level of H3K9me3, dose-dependent (H3K9me3 in LNCaP cells; 1–100 μM, 24 h) | IC50 (HeLa cells)
O=C(O)c1ccnc(C(=O)O)c1 [Compound 2, pyridine 2,4-dicarboxylic acid] | blocked the demethylation activity | 24% | 21% | blocked the demethylation activity | millimolar range | – | – | – | – | – | – | – | – | – | – | –
O=[N+]([O-])c1cc([N+](=O)[O-])c(/C=C/c2ccc(Cl)c(Cl)c2)cc1/C=C/c1ccc(Cl)c(Cl)c1 [Compound 4, 1,5-bis[(E)-2-(3,4-dichlorophenyl)ethenyl]-2,4-dinitrobenzene] | – | – | – | blocked the demethylation activity | – | hardly any effect | competitive | downregulation | upregulation | slightly reduced growth | significantly affected | almost completely blocked | significantly increased | essentially comparable signals | notable increase | –
O=C(O)c1ccc(O)c2ncccc12 [5-carboxy-8HQ] | – | – | – | – | – | – | – | – | – | – | – | – | – | – | – | 86.5 µM
